Drawing on patent US8349827B2, “Substituted dipyrido-pyrimido-diazepine and benzo-pyrido-pyrimido compounds” (ArQule, Inc., priority 2009, dated 2013), this text covers inhibition for 15 molecules.

For one test, the system named is MDA-MB-231. The test can be described thus: MTS assay, MDA-MB-231 cells. Format: cell-based. The conditions noted are these: Homo sapiens, 72 hours. As for the experimental part:
(§1) Cells were maintained at 37° C., 5% CO2 in DMEM media supplemented with 1% fetal bovine serum, penicillin/streptomycin and fungizone (Invitrogen). Cells were seeded into 96-well tissue culture plates at 3000 per well and cultured at 37° C. for 18 hours. Test compounds were dissolved and diluted to 300× in DMSO then diluted 1:40 in DMEM. Cells were incubated with test compounds for 72 hours followed by incubation with tetrazolium compound (3-(4,5-dimethylthiazol-2-yl)-5-(3-carboxymethoxyphenyl)-2-(4-sulfophenyl)-2H-tetrazolium, inner salt; MTS) and the electron coupling reagent, phenazine methosulfate (PMS) for 4 hours. […] The ability of compounds to inhibit cell growth in this assay is correlated with the reduction of dehydrogenase enzyme activity found in metabolically active cells. The measurement of the absorbance of the formazan was assessed using an ENVISION™ (Perkin Elmer) microplate reader at 492 nm. The calculated IC50 value is the concentration of the test compound that causes a 50% decrease in the absorbance.

Another test relates to KATO III. The test can be described thus: MTS assay, KATO III cells. Format: cell-based. The conditions noted are these: Homo sapiens, 72 hours. As for the experimental part:
as §1

A further test addresses ABL (Homo sapiens, UniProt P00519). Kind of test: ABL Kinase Activity Assay (Elisa), ABL. Format: biochemical. The following applies: ATP 100 μM, read-out: Abl Enzymetic assay (Elisa) % inhibition. As for the experimental part: (§2) ABL Kinase Activity Assay
(§3) The disclosed compounds were assayed for their ability to inhibit the activity of ABL kinase. Nunc Maxisorb plates were coated with streptavidin by overnight incubation with 100 μL per well of 1 μg/ml streptavidin in DPBS. Prior to the experiment, the plates were washed with TBST (3×200 μL) and blocked for at least 3 hours by adding 150 μL of 5% BSA/TBST. The plates were washed with TBST (3×200 μL/well) and left dry immediately before the capture step.
(§4) The disclosed test compounds and controls (Gleevec) were prepared using the following assay buffer@10× desired final concentration (50 mM Tris pH 7.0, 0.02 mg/ml BSA, 10 mM MgCl2, 0.1 mM Na3VO4, 1 mM EGTA, 0.01% NP-40, 1 mM DTT in 10% glycerol/water). In a reaction plate, 5 μl test article (or control) and 30 μl ABL or ABL T315I (0.089 nM final concentration, in the above buffer) were added rapidly. The plate was incubated for 20 minutes. To the reaction plate was added ATP (100 μM final concentration) and AblTide (128 nM final concentration) in a volume of 15 μl. The plate was incubated at room temperature for one hour.
(§5) From the reaction plate, 40 μl was transferred to the streptavidin coated plate. The capture plate was incubated at room temperature for 30 minutes, then washed 3× with TBST. To the capture plate was added 100 μL/well of cell signaling anti-phospho tyrosine at a dilution of 1:3000 in 2% BSA/TBST. The plate was incubated for two hours at room temperature then washed 3× with TBST. To the capture plate was added 100 μL/well of alkaline phosphatase tagged goat anti mouse antibody at a dilution of 1:4000 in 2% BSA/TBST. The plate was incubated for one hour at room temperature then washed 3× with TBST.
(§6) The fluorescent readout was initiated by the addition of 100 μl/well of Attophos reagent (6 mg/10 mL). The reading was done on the Perkin Elmer Envision system.

The target of another test is ABL T315I (Homo sapiens, UniProt P00519, T315I). The test can be described thus: ABL Kinase Activity Assay (Elisa), ABL T315I. Format: biochemical. The following applies: ATP 100 μM, read-out: Abl(T315I) Enzymetic assay (Elisa) % inhibition. How it is done: as §2, §3, §4, §5, §6
A further test concerns PC-3. The test can be described thus: MTS assay, PC-3 cells. Format: cell-based. The conditions noted are these: Homo sapiens, 72 hours. How it is done: as §1
A further test has as its system PACA-2. The test can be described thus: MTS assay, PACA-2 cells. Format: cell-based. The conditions noted are these: 72 hours. How it is done: as §1
The test system of another test is NCI-H1299. Kind of test: MTS assay, NCI-H1299 cells. The following applies: Homo sapiens, 72 hours. Format: cell-based. As for the experimental part: as §1
The subject of a further test is DLD-1. Kind of test: MTS assay, DLD-1 cells. The following applies: Homo sapiens, 72 hours. Format: cell-based. How it is done: as §1

For the molecule `FC(F)(F)c1ccccc1CNc1ncc2c(n1)-c1cccnc1Nc1cnccc1-2` [Example 3, N-[2-(trifluoromethyl)benzyl]-9H-dipyrido[2,3-b:4′,3′-f]pyrimido[4,5-d]azepin-2-amine], the inhibition at 10 µM with MDA-MB-231 is under 50%; in the test on KATO III it was under 50%; at ABL it was 50 to 79%; on ABL T315I, 80 to 100%; with PC-3, under 50%; with PACA-2 it was under 50%. Moreover, the inhibition at 10 µM in the test with NCI-H1299 is 50 to 79%; in the test on DLD-1, under 50%.
On to `O=C1CCCN1CCCNc1ncc2c(n1)-c1cccnc1Nc1cnccc1-2` [Example 4, 1-[3-(9H-dipyrido[2,3-b:4′,3′-f]pyrimido[4,5-d]azepin-2-ylamino)propyl]pyrrolidin-2-one], for which the inhibition at 10 µM was under 50% in the test on MDA-MB-231; under 50% in the test on KATO III; 50 to 79% at ABL; 80 to 100% at ABL T315I; under 50% with PC-3; under 50% in the test on NCI-H1299. This molecule showed an inhibition at 10 µM in the test on DLD-1 of under 50%.
On to `CCCC(C)Nc1ncc2c(n1)-c1cccnc1Nc1cnccc1-2` (centres unmarked) [Example 5, N-(1-methylbutyl)-9H-dipyrido[2,3-b:4′,3′-f]pyrimido[4,5-d]azepin-2-amine], for which the inhibition at 10 µM in the test with MDA-MB-231 is under 50%; in the test on KATO III, 50 to 79%; on ABL, 80 to 100%; at ABL T315I, 80 to 100%; in the test with PC-3, under 50%; with PACA-2, under 50%. The inhibition at 10 µM in the test on NCI-H1299 and in the test with DLD-1 was under 50% in each case.
In the case of `Fc1ccc(CNc2ncc3c(n2)-c2cccnc2Nc2cnccc2-3)c(Cl)c1` [Example 10, N-(2-chloro-4-fluorobenzyl)-9H-dipyrido[2,3-b:4′,3′-f]pyrimido[4,5-d]azepin-2-amine], the inhibition at 10 µM in the test on MDA-MB-231 was under 50%; on ABL, 80 to 100%; on ABL T315I it was 80 to 100%; in the test on PC-3, under 50%; in the test on NCI-H1299 it was under 50%.
`CC(CO)Nc1ncc2c(n1)-c1cccnc1Nc1cnccc1-2` (centres unmarked) [Example 17, 2-(9H-dipyrido[2,3-b:4′,3′-f]pyrimido[4,5-d]azepin-2-ylamino)propan-1-ol]: the inhibition at 10 µM was under 50% with KATO III, 80 to 100% at ABL, 80 to 100% at ABL T315I and under 50% in the test with PC-3.
Regarding `CCC(CC)Nc1ncc2c(n1)-c1cccnc1Nc1cnccc1-2` [Example 18, N-(1-ethylpropyl)-9H-dipyrido[2,3-b:4′,3′-f]pyrimido[4,5-d]azepin-2-amine], the inhibition at 10 µM in the test on MDA-MB-231 is under 50%; in the test on KATO III it was 50 to 79%; on ABL, 80 to 100%; on ABL T315I it was 80 to 100%; in the test with PC-3, under 50%; in the test on NCI-H1299, under 50%. Moreover, in the test on DLD-1, the inhibition at 10 µM was under 50%.
On to `COc1cc(CCNc2ncc3c(n2)-c2cccnc2Nc2cnccc2-3)cc(OC)c1` [Example 38, N-[2-(3,5-dimethoxyphenyl)ethyl]-9H-dipyrido[2,3-b:4′,3′-f]pyrimido[4,5-d]azepin-2-amine], for which the inhibition at 10 µM was under 50% in the test with KATO III; 50 to 79% on ABL; under 50% on ABL T315I; under 50% in the test on PC-3; under 50% in the test on PACA-2; under 50% in the test on DLD-1.
`c1ccc(-c2cccc(CNc3ncc4c(n3)-c3cccnc3Nc3cnccc3-4)c2)cc1` [Example 45, N-(biphenyl-3-ylmethyl)-9H-dipyrido[2,3-b:4′,3′-f]pyrimido[4,5-d]azepin-2-amine]: the inhibition at 10 µM in the test with KATO III was 80 to 100%; at ABL it was 80 to 100%; on ABL T315I it was 80 to 100%; in the test with PC-3, under 50%; in the test with PACA-2, 80 to 100%; with NCI-H1299, 50 to 79%. For the same molecule, the inhibition at 10 µM in the test with DLD-1 fell in the range of 80 to 100%.
Regarding `Brc1ccc(CCNc2ncc3c(n2)-c2cccnc2Nc2cnccc2-3)cc1` [Example 46, N-[2-(4-bromophenyl)ethyl]-9H-dipyrido[2,3-b:4′,3′-f]pyrimido[4,5-d]azepin-2-amine], the inhibition at 10 µM in the test on KATO III is 50 to 79%; at ABL it was 80 to 100%; at ABL T315I, 80 to 100%; with PC-3, under 50%; with PACA-2, under 50%; in the test with NCI-H1299, under 50%. The same molecule displayed an inhibition at 10 µM with DLD-1 of 50 to 79%.
With `CN(C)CCCCCNc1ncc2c(n1)-c1cccnc1Nc1cnccc1-2` [Example 48, N′-9H-dipyrido[2,3-b:4′,3′-f]pyrimido[4,5-d]azepin-2-yl-N,N-dimethylpentane-1,5-diamine], the inhibition at 10 µM with MDA-MB-231 is 50 to 79%; with KATO III, under 50%; on ABL it was 80 to 100%; on ABL T315I it was 80 to 100%; with PC-3, 50 to 79%; in the test on PACA-2, under 50%. Also, the inhibition at 10 µM in the test with DLD-1 is under 50%.
As for `CN(C)CCCNc1ncc2c(n1)-c1cccnc1Nc1cnccc1-2` [Example 50, N′-9H-dipyrido[2,3-b:4′,3′-f]pyrimido[4,5-d]azepin-2-yl-N,N-dimethylpropane-1,3-diamine], the inhibition at 10 µM was under 50% with KATO III; 50 to 79% on ABL; under 50% at ABL T315I; under 50% in the test with PC-3; under 50% in the test on PACA-2.
Take `c1cnc2c(c1)-c1nc(NC3CCNCC3)ncc1-c1ccncc1N2` [Example 59, N-piperidin-4-yl-9H-dipyrido[2,3-b:4′,3′-f]pyrimido[4,5-d]azepin-2-amine]: the inhibition at 10 µM with MDA-MB-231, in the test on KATO III, on ABL, at ABL T315I and in the test on PC-3 was 80 to 100% in each case.
For the molecule `Nc1ncc2c(n1)-c1cccnc1Nc1ccccc1-2` [Example 62, 9H-pyrido[2,3-b]pyrimido[4,5-d][1]benzazepin-2-amine], the inhibition at 10 µM with MDA-MB-231 is under 50%; in the test on KATO III, under 50%; on ABL, 50 to 79%; at ABL T315I, 50 to 79%; in the test with PC-3, under 50%; in the test on PACA-2, under 50%.
`Fc1ccc(CNc2ncc3c(n2)-c2cccnc2Nc2ccccc2-3)c(F)c1` [Example 64, N-(2,4-difluorobenzyl)-9H-pyrido[2,3-b]pyrimido[4,5-d][1]benzazepin-2-amine]: the inhibition at 10 µM was under 50% in the test on MDA-MB-231; under 50% in the test on KATO III; 50 to 79% at ABL; under 50% on ABL T315I; under 50% in the test with PC-3; under 50% in the test with NCI-H1299. Also, in the test with DLD-1, the inhibition at 10 µM is under 50%.
Regarding `Clc1cccc(CNc2ncc3c(n2)-c2ccccc2Nc2cnccc2-3)c1` [Example 70, N-(3-chlorobenzyl)-9H-pyrido[3,4-b]pyrimido[5,4-d][1]benzazepin-2-amine], the inhibition at 10 µM in the test with MDA-MB-231, in the test with KATO III, with PC-3, with PACA-2, in the test on NCI-H1299 and in the test with DLD-1 was 80 to 100% throughout.
